# Measurements: patent publication US20080175903A1, “Treatment of anxiety with eszopiclone” (Sepracor Inc., priority 2006, published 2008)
# Read-outs that look alike come from different tables or passages of the source.
# Key:
# rhesus monkeys [1] = conditions: previously published in Rowlett et al., 2006; cited from earlier work
# [2] = Clinical study of eszopiclone in healthy volunteers: plasma concentration-time profiles after oral administration; format: in vivo, human; conditions: post-dose
# Procedure: FIG. 1 is a plot of mean (S)-zopiclone plasma concentration-time profiles following oral administration of (S)-zopiclone.
# A clinical study of eszopiclone in healthy volunteers was performed using art-recognized methodology.
# [3] = molecular target: T1, α1-containing GABAA receptors (human α1, β3, γ2L) (Homo sapiens, UniProt P14867+P18507); test: Potentiation of GABA evoked currents, recombinant GABA-A receptors in Xenopus oocytes, two-electrode voltage clamp; format: cell-based
# T1 construct: expressed in transfected cells; host or cells: Xenopus oocytes (cDNA injected, alpha:beta:gamma 1:1:3)
# T1 sequence (P14867 28-456): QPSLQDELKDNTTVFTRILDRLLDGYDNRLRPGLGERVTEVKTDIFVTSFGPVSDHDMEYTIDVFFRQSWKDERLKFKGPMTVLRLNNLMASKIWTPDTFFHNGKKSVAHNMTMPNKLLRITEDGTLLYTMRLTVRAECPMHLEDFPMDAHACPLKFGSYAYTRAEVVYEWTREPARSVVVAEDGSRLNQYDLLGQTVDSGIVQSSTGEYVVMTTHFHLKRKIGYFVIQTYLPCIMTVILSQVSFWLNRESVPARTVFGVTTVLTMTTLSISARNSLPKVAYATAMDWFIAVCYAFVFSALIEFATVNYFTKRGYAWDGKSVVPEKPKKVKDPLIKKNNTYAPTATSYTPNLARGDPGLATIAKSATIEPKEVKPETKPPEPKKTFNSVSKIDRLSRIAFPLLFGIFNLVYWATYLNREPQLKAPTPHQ
# T1 sequence (P28472 26-473 partner): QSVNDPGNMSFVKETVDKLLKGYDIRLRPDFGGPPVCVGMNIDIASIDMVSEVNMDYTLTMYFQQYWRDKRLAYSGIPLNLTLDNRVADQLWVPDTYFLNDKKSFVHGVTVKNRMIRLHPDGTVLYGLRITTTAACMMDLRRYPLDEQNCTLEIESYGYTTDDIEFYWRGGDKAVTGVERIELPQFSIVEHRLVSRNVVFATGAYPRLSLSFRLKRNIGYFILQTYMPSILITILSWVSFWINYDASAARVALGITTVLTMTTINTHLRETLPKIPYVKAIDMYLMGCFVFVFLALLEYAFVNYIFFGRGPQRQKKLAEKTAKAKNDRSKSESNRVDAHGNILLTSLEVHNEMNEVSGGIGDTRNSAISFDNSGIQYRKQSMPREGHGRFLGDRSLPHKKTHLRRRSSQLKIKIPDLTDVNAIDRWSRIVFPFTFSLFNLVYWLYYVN
# T1 sequence (P18507 40-475): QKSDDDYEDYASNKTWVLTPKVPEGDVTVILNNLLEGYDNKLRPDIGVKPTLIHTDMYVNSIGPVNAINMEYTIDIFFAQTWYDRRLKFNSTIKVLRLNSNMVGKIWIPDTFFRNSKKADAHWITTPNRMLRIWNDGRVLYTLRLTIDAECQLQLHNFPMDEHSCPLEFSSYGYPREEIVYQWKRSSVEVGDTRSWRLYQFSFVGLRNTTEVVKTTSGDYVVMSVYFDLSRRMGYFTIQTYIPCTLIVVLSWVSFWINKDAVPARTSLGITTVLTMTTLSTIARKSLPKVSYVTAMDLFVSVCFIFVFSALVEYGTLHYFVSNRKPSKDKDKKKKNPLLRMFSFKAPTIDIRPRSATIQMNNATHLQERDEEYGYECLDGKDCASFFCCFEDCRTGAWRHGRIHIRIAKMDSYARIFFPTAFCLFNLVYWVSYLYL
# Procedure: (§1) FIG. 2 is a plot showing the concentration-dependent potentiation of GABA evoked currents by (S)-zopiclone. For all experiments, human cDNA encoding each subunit was injected in oocytes in a stoichiometry of 1:1:3 (alpha, beta, gamma subunits). Approximately 24 hours later, GABA evoked currents (using a concentration of GABA equal to the EC10) were recorded from oocytes using a two-electrode voltage clamp on a robotic oocyte platform and a constant voltage of −80 mV. GABA was applied to the oocytes via a perfusion system for 20 seconds and then removed. An inward deflection of the current trace was recorded and subsequently compared to the responses resulting from applying the same concentration of GABA plus varying concentrations of the test compound ((S)-zopiclone). A doubling of the GABA evoked current is represented as a potentiation ratio of 1.0.
# (§2) The GABA-A receptor is gated by GABA, and ligands at the benzodiazepine site potentiate GABA-evoked currents. It is well-established in the scientific literature that classical benzodiazepines potentiate GABA evoked chloride currents through GABA-A receptors. The efficacies of classical benzodiazepines can be described as “full modulators” referring to their ability to increase the chloride currents induced by sub-maximal GABA concentrations. The action of (S)-zopiclone on GABA-A receptors was evaluated by examining their effects on electrophysiological recordings in a recombinant expression system.
# (§3) Recombinant GABA-A receptors were expressed in Xenopus oocytes by injecting cDNA encoding the human β3, γ2L, and each of α1, α2, α3, or α5 subunits in turn to assemble functional channels. Channel activity was measured using two-electrode voltage clamp in whole cell configuration on a robotic workstation. […] The potentiation ratio was then measured as the fold-increase in current generated by a (S)-zopiclone plus an EC10 of GABA, compared to the current generated by just the EC10 of GABA alone. These potentiation ratios were measured at a range of (S)-zopiclone concentrations to generate a subsequent concentration response curve at each of the subtypes using between 2 and 7 oocytes. […]
# (§4) For all experiments, human cDNA encoding each subunit was injected in oocytes in a stoichiometry of 1:1:3 (alpha, beta, gamma subunits). Approximately 24 hours later, GABA evoked currents (using a concentration of GABA equal to the EC10) were recorded from oocytes using a two-electrode voltage clamp on a robotic oocyte platform and a constant voltage of −80 mV. […] An inward deflection of the current trace was recorded and subsequently compared to the responses resulting from applying the same concentration of GABA plus varying concentrations of the test compound [(S)-zopiclone]. […]
# [4] = molecular target: T2, α2-containing GABAA receptors (human α2, β3, γ2L) (Homo sapiens, UniProt P18507+P47869); test: as above; format: cell-based
# T2 construct: expressed in transfected cells; host or cells: Xenopus oocytes (cDNA injected, alpha:beta:gamma 1:1:3)
# T2 sequence (P47869 29-451): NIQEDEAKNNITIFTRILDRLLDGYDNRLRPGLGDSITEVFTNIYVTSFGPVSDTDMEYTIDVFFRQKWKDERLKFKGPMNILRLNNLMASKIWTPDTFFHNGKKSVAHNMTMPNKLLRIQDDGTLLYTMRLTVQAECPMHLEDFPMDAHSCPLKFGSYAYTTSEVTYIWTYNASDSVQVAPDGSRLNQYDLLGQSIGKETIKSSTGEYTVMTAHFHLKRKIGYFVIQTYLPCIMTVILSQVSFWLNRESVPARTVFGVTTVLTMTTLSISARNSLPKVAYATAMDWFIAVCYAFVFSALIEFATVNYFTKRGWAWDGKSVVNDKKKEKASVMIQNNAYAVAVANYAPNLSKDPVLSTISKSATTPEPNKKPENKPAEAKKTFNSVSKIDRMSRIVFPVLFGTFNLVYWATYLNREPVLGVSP
# T2 sequence (P28472 26-473 partner): as the sequence (P28472 26-473 partner) above
# T2 sequence (P18507 40-475): as the sequence (P18507 40-475) above
# Procedure: as §1, §2, §3, §4
# [5] = molecular target: T3, α3-containing GABAA receptors (human α3, β3, γ2L) (Homo sapiens, UniProt P18507+P34903); test: as above; format: cell-based
# T3 construct: expressed in transfected cells; host or cells: Xenopus oocytes (cDNA injected, alpha:beta:gamma 1:1:3)
# T3 sequence (P34903 29-492): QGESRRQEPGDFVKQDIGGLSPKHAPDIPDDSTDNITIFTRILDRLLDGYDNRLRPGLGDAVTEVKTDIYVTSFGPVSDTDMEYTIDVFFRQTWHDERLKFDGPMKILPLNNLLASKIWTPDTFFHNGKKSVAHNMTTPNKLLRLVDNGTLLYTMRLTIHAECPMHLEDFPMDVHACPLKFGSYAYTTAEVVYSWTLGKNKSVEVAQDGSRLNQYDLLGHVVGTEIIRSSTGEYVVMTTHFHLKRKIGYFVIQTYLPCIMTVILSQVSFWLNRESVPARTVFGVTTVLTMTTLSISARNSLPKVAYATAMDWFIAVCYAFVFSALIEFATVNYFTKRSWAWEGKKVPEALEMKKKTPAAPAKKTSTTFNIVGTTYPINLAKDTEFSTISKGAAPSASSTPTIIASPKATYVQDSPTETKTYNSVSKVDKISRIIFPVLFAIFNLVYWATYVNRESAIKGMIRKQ
# T3 sequence (P28472 26-473 partner): as the sequence (P28472 26-473 partner) above
# T3 sequence (P18507 40-475): as the sequence (P18507 40-475) above
# Procedure: as §1, §2, §3, §4
# [6] = molecular target: T4, α5-containing GABAA receptors (human α5, β3, γ2L) (Homo sapiens, UniProt P18507+P31644); test: as above; format: cell-based
# T4 construct: expressed in transfected cells; host or cells: Xenopus oocytes (cDNA injected, alpha:beta:gamma 1:1:3)
# T4 sequence (P31644 32-462): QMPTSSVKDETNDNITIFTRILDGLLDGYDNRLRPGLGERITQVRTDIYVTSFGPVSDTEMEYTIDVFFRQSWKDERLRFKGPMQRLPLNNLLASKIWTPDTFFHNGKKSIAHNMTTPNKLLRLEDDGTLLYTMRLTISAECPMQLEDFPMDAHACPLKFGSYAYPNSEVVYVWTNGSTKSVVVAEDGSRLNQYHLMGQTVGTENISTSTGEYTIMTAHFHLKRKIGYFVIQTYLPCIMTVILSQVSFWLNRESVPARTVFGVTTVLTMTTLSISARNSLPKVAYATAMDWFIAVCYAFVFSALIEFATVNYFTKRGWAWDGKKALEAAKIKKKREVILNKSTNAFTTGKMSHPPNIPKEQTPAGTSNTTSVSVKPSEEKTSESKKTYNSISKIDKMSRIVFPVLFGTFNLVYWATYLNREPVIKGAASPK
# T4 sequence (P28472 26-473 partner): as the sequence (P28472 26-473 partner) above
# T4 sequence (P18507 40-475): as the sequence (P18507 40-475) above
# Procedure: as §1, §2, §3, §4
# rhesus monkeys [7] = test: Rhesus monkey conflict procedure (suppressed and non-suppressed responding); format: in vivo; conditions: for ED50: Macaca mulatta, iv, rhesus monkeys; for Estimated anxiolytic dose / expected human oral dose: minimum recommended dose of diazepam 2 mg
# Procedure: FIG. 3 is a plot of rates of non-suppressed and suppressed responding by rhesus monkeys trained in a conflict procedure. Monkeys were injected i.v. with cumulative doses of (S)-zopiclone. Data are mean±S.E.M. for N=4 monkeys. Points above “V” represent data following drug vehicle administration. Note that *P<0.05 vs. V (control). Experimental methodology was identical to that described by Rowlett J K et al. (2006).
# “Conflict Procedure,” as used herein refers to the rhesus monkey conflict procedure reported by Rowlett et al. (Psychopharmacology (2006) 184:201-211). Antianxiety dosage determination in rhesus monkeys using the procedure set forth by Rowlett et al. is correlative with antianxiety dosages in humans. The conflict procedure is a method of determining the parameters correlating a clinically determinable effect of eszopiclone in rhesus monkeys with analogous effects in a human subject. The results of conflict procedures in rhesus monkeys are closely correlated with dosages of agents providing anxiolysis in humans. Accordingly, the conflict procedure is a method of determining whether a dosage of eszopiclone provides clinically determinable treatment or prophylaxis of anxiety in humans.
# Conflict procedures in animals are used to study mechanisms underlying the anxiolytic effects of benzodiazepines (Rowlett J K et al., Psychopharmacology (2006) 184:201-211). […] The effects of each benzodiazepine in rhesus conflict procedure is to increase suppressed responding at doses lower than the doses that ultimately decrease rates of non-suppressed responding. This characteristic profile in the rhesus conflict procedure contrasts dramatically with the effects of non-benzodiazepine hypnotics zolpidem and zaleplon, and also contrasts to the effects of GABA-A ligands with subtype efficacies different from classical benzodiazepines, such as flumazenil and CL218,872 (Rowlett J K et al., 2006).
# This correlation was used to estimate the therapeutic dose in humans for anxiolytic effects. The ED50 of the suppressed responding in FIG. 3 is 0.07 mg/kg i.v., indicating a 50% anxiolytic effect at that dose i.v. in the rhesus procedure. Using this ED50 in the regression analysis of Rowlett J K et al. (2006), an expected human oral dose of 0.9 mg is obtained. This dose is below the hypnotic doses (i.e., it is subsedative) used clinically in humans (1, 2, and 3 mg), further supporting the validity of the correspondence between the efficacy profiles of classical benzodiazepines and (S)-zopiclone.
# The potencies of eszopiclone to alter suppressed and non-suppressed responding were estimated by calculating the dose that engendered 5% to 95% of the maximum effect (EDx, where x=5-95%). The EDx for suppressed responding was obtained by dividing rates of suppressed responding for individual monkeys by the average maximum increase in response rate (i.e., the peak effect) and multiplying the value by 100. Doses on the ascending limb of the dose-response function were used to calculate the EDx by log-linear regression analysis. The EDx for non-suppressed responding was obtained by dividing rates of non-suppressed responding for individual monkeys by the average maximum decrease in response rate (this corresponded to the highest dose tested) and multiplying by 100. The EDx values for non-suppressed responding were calculated by log-linear regression analysis. All potencies were expressed as the mean±SEM for n=4 monkeys.
# A linear relationship between relative potency to induce clinical effects in humans and relative potency to increase suppressed responding or decrease non-suppressed responding in monkeys has been determined previously for 10 standard benzodiazepines (Rowlett et al., 2006). […]
# [8] = tested on: healthy adult male human subjects; test: EEG study (quantitative wake EEG) of single doses of eszopiclone versus placebo; format: in vivo
# Procedure: A study was conducted to evaluate the pharmacodynamic (quantitative wake electroencephalogram (qEEG) and auditory P300 (evoked potentials (EPs)) of four doses of eszopiclone, relative to placebo, in healthy adult male human subjects. The study was single-blind, placebo-controlled, ascending, single dose. Subjects received single doses of immediate release formulations that contained 0.3 mg of eszopiclone, 0.6 mg of eszopiclone, 0.9 mg of eszopiclone or 2.0 mg of eszopiclone.
# Changes in beta EEG activity are interpreted as indicating an anxiolytic effect (Ansseau et al, Neuropsychobiology 1984, 12(4):255-9; Buchsbaum et al, Biol. Psychiatry, 1985, 20(8):832-42; Macher et al, Human psychopharmacology, 1990 (eds I Hindmarch and P D Stonier), Vol 3, 10-2; Mandema and Danhof, Clin Pharmacokinet, 1992, 23(3):191-215.
# In this study, statistical EEG maps were obtained comparing EEG power values for each dose of eszopiclone versus placebo. […] The dose effect is further illustrated in the graphically depicted results of FIG. 4 which follows.
# Classically, delta activity in pharmaco-EEG indicates a sedative effect of the drug under study. Delta EEG activity is clearly modified when the sedative drug effect has reached a high threshold.
# Conclusions regarding a possible sedative effect or a trend to impair the subject's arousal should also include analyses of a drug's effects on alpha EEG activity, which reflect decreases in subject's arousal (pro sedative effect).
# [9] = log10 of predicted potency relative to diazepam in humans
# [10] = predicted potency relative to diazepam in humans
# [11] = relative potency in the monkey conflict procedure
compound,measurement,setting,value
"CN1C(=O)CN=C(c2ccccc2)c2cc(Cl)ccc21 [Diazepam, diazepam]","ED50, non-suppressed responding",rhesus monkeys [1],1.65 mg/kg
same,"ED50, suppressed responding",rhesus monkeys [1],0.11 mg/kg
"CN1CCN(C(=O)O[C@H]2c3nccnc3C(=O)N2c2ccc(Cl)cn2)CC1 [Eszopiclone, (+)-(5S)-6-(chloropyridin-2-yl)-7-oxo-6,7-dihydro-5H-pyrrolo[3,4-b]pyrazin-5-yl 4-methyl-piperazine-1-carboxylate]",time of maximum mean (S)-zopiclone plasma concentrations,[2]; fasted conditions,0.5 to 1.5 h
same,time of maximum mean (S)-zopiclone plasma concentrations,[2]; fed conditions,2 to 3 h
same,EC50,[3],30 nM
same,EC50,[4],100 nM
same,EC50,[5],250 nM
same,EC50,[6],40 nM
same,ED50,"rhesus monkeys [7]; read-out: ED50, non-suppressed responding",0.74 mg/kg
same,ED50,"rhesus monkeys [7]; read-out: ED50, suppressed responding",0.07 mg/kg
same,Estimated anxiolytic dose / expected human oral dose,"rhesus monkeys [7]; human, regression of Rowlett et al. (2006), listed as (S)-zopiclone",0.9 mg
same,Estimated anxiolytic dose / expected human oral dose,"rhesus monkeys [7]; human, regression of Rowlett et al. (2006), listed as eszopiclone",Estimated anxiolytic dose for eszopiclone = 0.9 mg
same,Estimated sedative dose,"rhesus monkeys [7]; human, regression of Rowlett et al. (2006), maximum recommended dose of diazepam 10 mg",Estimated sedative dose for eszopiclone = 3.4 mg
same,"Y = 0.583x − 0.175, Y (eszopiclone relative potency), non-suppressed responding",rhesus monkeys [7]; [9],−0.47
same,"Y = 0.672x − 0.174, Y (eszopiclone relative potency), suppressed responding",rhesus monkeys [7]; [9],−0.34
same,"10^Y, non-suppressed responding",rhesus monkeys [7]; [10],0.34
same,"10^Y, suppressed responding",rhesus monkeys [7]; [10],0.46
same,"Ratio (eszopiclone ED50 / diazepam ED50), non-suppressed responding",rhesus monkeys [7]; [11],0.31
same,"Ratio (eszopiclone ED50 / diazepam ED50), suppressed responding",rhesus monkeys [7]; [11],0.64
same,"Log10(Ratio), non-suppressed responding","rhesus monkeys [7]; rhesus monkey, in vivo",−0.51
same,"Log10(Ratio), suppressed responding","rhesus monkeys [7]; rhesus monkey, in vivo",−0.19
same,ED5 to increase rates of suppressed responding (mean),"rhesus monkeys [7]; x = 5 % maximum increase, N = 4 monkeys","0.029 mg/kg, i.v."
same,ED10 to increase rates of suppressed responding (mean),"rhesus monkeys [7]; x = 10 % maximum increase, N = 4 monkeys","0.032 mg/kg, i.v."
same,ED15 to increase rates of suppressed responding (mean),"rhesus monkeys [7]; x = 15 % maximum increase, N = 4 monkeys","0.036 mg/kg, i.v."
same,ED20 to increase rates of suppressed responding (mean),"rhesus monkeys [7]; x = 20 % maximum increase, N = 4 monkeys","0.040 mg/kg, i.v."
same,ED25 to increase rates of suppressed responding (mean),"rhesus monkeys [7]; x = 25 % maximum increase, N = 4 monkeys","0.044 mg/kg, i.v."
same,ED30 to increase rates of suppressed responding (mean),"rhesus monkeys [7]; x = 30 % maximum increase, N = 4 monkeys","0.048 mg/kg, i.v."
same,ED35 to increase rates of suppressed responding (mean),"rhesus monkeys [7]; x = 35 % maximum increase, N = 4 monkeys","0.054 mg/kg, i.v."
same,ED40 to increase rates of suppressed responding (mean),"rhesus monkeys [7]; x = 40 % maximum increase, N = 4 monkeys","0.059 mg/kg, i.v."
same,ED45 to increase rates of suppressed responding (mean),"rhesus monkeys [7]; x = 45 % maximum increase, N = 4 monkeys","0.066 mg/kg, i.v."
same,ED50 to increase rates of suppressed responding (mean),"rhesus monkeys [7]; x = 50 % maximum increase, N = 4 monkeys","0.073 mg/kg, i.v."
same,ED55 to increase rates of suppressed responding (mean),"rhesus monkeys [7]; x = 55 % maximum increase, N = 4 monkeys","0.081 mg/kg, i.v."
same,ED60 to increase rates of suppressed responding (mean),"rhesus monkeys [7]; x = 60 % maximum increase, N = 4 monkeys","0.090 mg/kg, i.v."
same,ED65 to increase rates of suppressed responding (mean),"rhesus monkeys [7]; x = 65 % maximum increase, N = 4 monkeys","0.100 mg/kg, i.v."
same,ED70 to increase rates of suppressed responding (mean),"rhesus monkeys [7]; x = 70 % maximum increase, N = 4 monkeys","0.110 mg/kg, i.v."
same,ED75 to increase rates of suppressed responding (mean),"rhesus monkeys [7]; x = 75 % maximum increase, N = 4 monkeys","0.123 mg/kg, i.v."
same,ED80 to increase rates of suppressed responding (mean),"rhesus monkeys [7]; x = 80 % maximum increase, N = 4 monkeys","0.136 mg/kg, i.v."
same,ED85 to increase rates of suppressed responding (mean),"rhesus monkeys [7]; x = 85 % maximum increase, N = 4 monkeys","0.151 mg/kg, i.v."
same,ED90 to increase rates of suppressed responding (mean),"rhesus monkeys [7]; x = 90 % maximum increase, N = 4 monkeys","0.168 mg/kg, i.v."
same,ED95 to increase rates of suppressed responding (mean),"rhesus monkeys [7]; x = 95 % maximum increase, N = 4 monkeys","0.186 mg/kg, i.v."
same,"Alpha EEG activity (arousal), change from placebo",[8]; doses below 2.0 mg,did not exhibit major effects on arousal
same,"Alpha EEG activity (arousal), change from placebo",[8]; highest dose (2.0 mg),induces a significant impairment in the subject's arousal and possibly a sedative effect
same,"Delta EEG activity (sedative effect), change from placebo",[8]; highest dose (2.0 mg),induces a significant sedative effect
same,"Delta EEG activity (sedative effect), change from placebo","[8]; other doses (0.3, 0.6, 0.9 mg)",do not have this side effect
